Reference: article PMC2933614, “Quantitative in vitro and in vivo pharmacological profile of CE-178253, a potent and selective cannabinoid type 1 (CB1) Receptor Antagonist” (BMC Pharmacology, 2010)
Values joined by “and” are separate entries in the source; they are usually repeats but may differ in a detail not shown here. Identical values can stand only once.

What was measured:
[1] = Plasma to brain concentration ratios (brain impairment); assay type: in vivo; conditions: Sprague-Dawley, rat, brain and plasma (unbound and total), oral; mean ± SD over 0.3, 1, 3, 10 mg/kg p.o., n = 3 per dose; read-out: Ratios of unbound plasma and total plasma to unbound brain and total brain concentrations
Core body temperature = assay type: in vivo, mouse; conditions: C57BL/6J mice, n = 5 per group
Experimental: In a separate study, core body temperature was measured in C57BL/6J mice.

Indirect calorimetry = assay type: in vivo, rat; conditions: for Respiratory Quotient (VCO2/VO2): veh 0.85 ± 0.03; for VO2, ave, 1-3 hr (± S-D), increase in oxygen consumption: veh 3 ± 5
Experimental: Whole body oxygen consumption was measured using an indirect calorimeter (Oxymax from Columbus Instruments, Columbus, OH) in male Sprague Dawley rats. The rats (300-380 g body weight) were placed in the calorimetry chambers and the chambers were placed in activity monitors. All studies were conducted during the light cycle. Prior to the measurement of oxygen consumption, the rats were fed standard chow ad libitum. During the measurement of oxygen consumption, food was not provided to the rats. Basal, pre-dose oxygen consumption and ambulatory activity were measured every 10 min for 2.5 to 3 hr. At the end of the basal pre-dosing period, the chambers were opened and the animals were administered a single dose of compound (or veh.) by oral gavage. CE-178253 was prepared in 0.5% methylcellulose as veh. Oxygen consumption and ambulatory activity were measured every 10 min for an additional 1-6 hr after dosing. Resting oxygen consumption, during pre- and post-dosing, was calculated by averaging the 10-min O2 consumption values, excluding periods of high ambulatory activity (ambulatory activity count > 100) and excluding the first 5 values of the pre-dose period and the first value from the post-dose period. Change in oxygen consumption is reported as percent and is calculated by dividing the post-dosing resting oxygen consumption by the pre-dose oxygen consumption (X 100). VO2, VCO2, RER and locomotor activity were all measured.

[2] = Spontaneous nocturnal food intake; assay type: in vivo, rat; conditions: for Decrease in FI compared to veh.: 2 hr time point
Excerpt: All animal studies were approved by the Institutional Animal Care and Use Committee. Male Sprague Dawley rats on normal chow (8 weeks old, 250-300 g on arrival, 300-350 g on test day) were obtained from Charles River. After arrival, animals were individually housed and placed on powdered rat chow. Rats were maintained on a 12-hr light/dark cycle and received food and water ad libitum. In all studies CE-178253 and veh (0.5% methyl cellulose) administration to rats and mice was by oral gavage.
For the spontaneous, nocturnal FI assay, rats were administered veh. (0.5% methyl cellulose) or CE-178253 30 min prior to the start of the dark phase. Food consumption was monitored with electronic scales, and consumption was recorded every 10 min for 12 hr using an automated FI system (Columbus Instruments, Columbus, OH).
The first FI model used for determining anorectic efficacy of CE-178253 was spontaneous nocturnal feeding in rats. In rodents, most feeding activity takes place during the dark phase (nocturnal feeding cycle). In this model, male S-D rats were orally administered compound 30 min prior to the onset of the nocturnal phase. […] In addition, the effect of treatment on hourly FI was also assessed. […] No other time points in the interval analysis reach statistical significance. […] Cumulative food intake at the 2.5 hr time point was 3.2 ± 0.3, 2.4 ± 0.2, 0.5 ± 0.1 and 0.2 ± 0.1 in the veh, 0.3 mg/kg, 1 mg/kg, 3 mg/kg treated rats, respectively.

[3] = test system: central CB1 receptor-driven responses; set-up: method as in PMID 17630359; conditions: cited from earlier work
human CB2 receptor = molecular target: T1, human CB2 receptor (Homo sapiens, UniProt P34972); assay: Competition radioligand binding, human CB2
T1 construct: expressed in transfected cells
Experimental: (§1) HEK293 (CB1) or CHO (CB1 and CB2) cells (ATCC) were stably transfected with the human CB1 or CB2 receptors. Rat brain, and recombinant CB1 and CB2 and membranes were prepared as described. A Pierce™ BCA kit was used to determine protein concentrations.
(§2) 10 μg of membranes per well from human CB1 and CB 2 receptor transfected cells and rat brain was used in the assay. The plates were covered and placed in an incubator at 30°C for 60 min. At the end of the incubation period 125 μl of stop buffer (10% BSA plus TME) was added to the reaction plate. The plates were then harvested onto GF/C filter plates (Perkin Elmer Life Sciences) presoaked in BSA (5 mg/ml) plus TME. Each filter was washed twice with TME and dried overnight. In the morning the filters were counted on a Wallac Trilux™ counter.
(§3) Saturation and competition radioligand binding assays were used to characterize membranes prepared from human recombinant CB1 and CB2 and rat brain membranes.

[4] = Ten day DIO mouse food intake and body weight study; assay type: in vivo; conditions: 10-day, DIO mice
Experimental: Male, 14 week old C57/Bl6/6J mice which had been maintained on a high fat diet (45% kcal from fat) for 6 weeks were selected for the DIO weight loss study. The animals body weights ranged at least 5 standard deviations from age-matched chow-fed control animals mean body weight. Mice were singly housed. The mean starting weight of all animals was 38.9 ± 0.5 g. On Day 0, mice were randomly assigned to treatment groups (n = 10 per group). Mice were dosed daily over 10 days, starting approximately at 30 minutes before the start of the 12 hr dark cycle. BW and food intake were recorded daily.
DIO mice were treated once daily with veh. (0.5% MC) or CE-178253 at 1 mg/kg or 3 mg/kg, p.o., in a 10-day study (Figures 8A and 8B). […] The lower dose of CE-178253 (1 mg/kg, p.o.) provided for a non-significant 8% reduction in FI, whereas the 3 mg/kg dose led to a significant 31% reduction in cumulative FI. As with other CB1 receptor antagonists, the food intake reduction was maximal over the first five days and declined over time (Figure 8A). However, FI reductions were still evident on the final day of dosing at the high dose. […] The high dose group (3 mg/kg) lost, on average 18% BW.

[5] = molecular target: T2, rat brain membranes (predominantly CB1) (Rattus norvegicus, UniProt P20272); assay: Competition radioligand binding, rat brain membranes
T2 construct: In rat membranes prepared from whole brain; from tissue; host or cells: rat whole brain membranes
Experimental: as §1, §2, §3

T1 sequence (P34972 whole entry): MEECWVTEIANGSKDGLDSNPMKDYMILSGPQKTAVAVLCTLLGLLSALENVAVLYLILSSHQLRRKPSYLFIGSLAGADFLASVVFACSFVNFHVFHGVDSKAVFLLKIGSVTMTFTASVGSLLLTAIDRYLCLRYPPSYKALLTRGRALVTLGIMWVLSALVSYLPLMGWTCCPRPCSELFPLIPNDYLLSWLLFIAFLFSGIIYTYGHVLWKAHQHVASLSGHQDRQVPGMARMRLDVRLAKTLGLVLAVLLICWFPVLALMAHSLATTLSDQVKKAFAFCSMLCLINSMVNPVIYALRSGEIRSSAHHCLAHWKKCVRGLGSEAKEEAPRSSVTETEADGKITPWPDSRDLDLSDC
T2 sequence (P20272 whole entry): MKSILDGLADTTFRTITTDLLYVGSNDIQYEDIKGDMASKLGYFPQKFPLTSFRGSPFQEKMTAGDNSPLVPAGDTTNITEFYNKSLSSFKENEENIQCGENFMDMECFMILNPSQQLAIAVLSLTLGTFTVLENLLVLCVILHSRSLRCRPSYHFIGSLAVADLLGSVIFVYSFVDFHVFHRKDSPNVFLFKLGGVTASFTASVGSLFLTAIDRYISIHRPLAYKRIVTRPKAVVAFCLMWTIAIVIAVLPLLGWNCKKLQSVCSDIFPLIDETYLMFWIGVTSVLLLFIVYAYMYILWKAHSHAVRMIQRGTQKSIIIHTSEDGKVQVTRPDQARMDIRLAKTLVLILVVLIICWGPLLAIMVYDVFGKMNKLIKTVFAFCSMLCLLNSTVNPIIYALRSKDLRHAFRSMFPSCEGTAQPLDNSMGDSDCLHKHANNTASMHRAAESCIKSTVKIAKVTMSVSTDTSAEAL

- Plasma-to-brain concentration ratio at […] [1]: 2.9 ± 0.25
- EC50 ([2]; Rattus norvegicus, unbound plasma concentration (Cave, fu, p, 0-2.5 hr), cumulative FI at 2.5 hr post dose, read-out: Unbound EC50, reduction of food intake): 0.5 nM
- Ki (human CB2 receptor; [3H]CP-55940, ± SEM (n), read-out: Ki, competition binding, hCB2): 15700 ± 6170 nM
- Selectivity (hCB2 vs hCB1 binding Ki) (human CB2 receptor; difference in binding Ki values): > 30,000 fold
- Ki [5]: 0.43 ± 0.13 nM
SMILES: CCNC1(C(N)=O)CN(c2nc(C)nc3c(-c4ccc(Cl)cc4)c(-c4ccccc4Cl)nn23)C1 [CE-178253]
- Increase in core body temperature compared to veh (Core body temperature; 1 mg/kg): 0.7 ± 0.3 °C
- Increase in core body temperature compared to veh (Core body temperature; 3 mg/kg): 1.2 ± 0.3 °C
- Respiratory Quotient (VCO2/VO2) (Indirect calorimetry; 1 mg/kg p.o.): 0.74 ± 0.02
- VO2, ave, 1-3 hr (± S-D), increase in oxygen consumption (Indirect calorimetry; 1 mg/kg p.o.): 28% and 28 ± 7 %
- Respiratory Quotient (VCO2/VO2) (Indirect calorimetry; 3 mg/kg p.o.): 0.75 ± 0.03
- VO2, ave, 1-3 hr (± S-D), increase in oxygen consumption (Indirect calorimetry; 3 mg/kg p.o.): 39% and 39 ± 5 %
- Respiratory quotient after dosing (Indirect calorimetry; declined from 0.85 over the first hr, dose not stated): 0.75
- Acute stimulation of energy expenditure (Indirect calorimetry; rats, dose not stated): greater than 30%
- Decrease in FI compared to veh. ([2]; 0.3 mg/kg p.o.): 25%
- Decrease in FI compared to veh. ([2]; 1 mg/kg p.o.): 84%
- Decrease in FI compared to veh. ([2]; 3 mg/kg p.o.): 94%
- Effect on CP-55940 responses in all four components of the tetrad [3]: dose-dependently reversed
- Reduction in cumulative FI ([4]; 1 mg/kg p.o. once daily, non-significant): 8%
- BW lost, on average ([4]; 3 mg/kg p.o. once daily): 18%
- Reduction in cumulative FI ([4]; 3 mg/kg p.o. once daily, significant): 31%
